Measurements reported in patent US20220062278A1, “SMALL MOLECULE INHIBITORS OF THE ANDROGEN RECEPTOR ACTIVITY AND/OR EXPRESSION AND USES THEREOF” (Arizona Board of Regents on Behalf of the Univeristy of …, priority 2018, published 2022).

Biological target: T1, AR (Homo sapiens, UniProt P10275)
T1 sequence (P10275 669-920 limits assumed): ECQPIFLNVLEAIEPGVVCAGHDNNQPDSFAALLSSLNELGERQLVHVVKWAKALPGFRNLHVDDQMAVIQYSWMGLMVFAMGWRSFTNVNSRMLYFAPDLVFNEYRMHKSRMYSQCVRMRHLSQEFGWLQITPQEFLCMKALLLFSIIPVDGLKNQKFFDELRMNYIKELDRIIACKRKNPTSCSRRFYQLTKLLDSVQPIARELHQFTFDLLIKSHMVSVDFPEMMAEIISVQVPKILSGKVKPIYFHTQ
Experiment: GeneBlazer assay, inhibition against AR activity
Format: cell-based
Settings: Table II
Text: Tables II, III and IV show % inhibition against AR activity at 10 μm within a GeneBlazer assay, and IC50 values (nM) in GeneBlazer assay.

Row | Structure (SMILES) | inhibition at 10 µM [%] | IC50 [nM]
1 | Oc1cccc(C(c2nnnn2Cc2ccccc2)N2CCN(c3c(Cl)cncc3Cl)CC2)c1 (stereo not shown) [Compound 19, 3-((1-benzyl-1H-tetrazol-5-yl)(4-(3,5-dichloropyridin-4-yl)piperazin-1-yl)methyl)phenol] | 120 | 134
2 | Cc1cccc(C)c1-n1nnnc1C(c1cccc(O)c1)N1CCN(c2c(Cl)cncc2Cl)CC1 (stereo not shown) [Compound 20, 3-((4-(3,5-dichloropyridin-4-yl)piperazin-1-yl)(1-(2,6-dimethylphenyl)-1H-tetrazol-5-yl)methyl)phenol] | 111 | 
3 | CCCCNC(=O)C(c1cccc(O)c1)N1CCN(c2c(Cl)cncc2Cl)CC1 (stereo not shown) [Compound 21, N-butyl-2-(4-(3,5-dichloropyridin-4-yl)piperazin-1-yl)-2-(3-hydroxyphenyl)acetamide] | 93 | 
4 | Oc1cccc(CN2CCN(c3c(Cl)cncc3Cl)CC2)c1 [Compound 22, 3-((4-(3,5-dichloropyridin-4-yl)piperazin-1-yl)methyl)phenol] | 68.1 | 
5 | Clc1cncc(Cl)c1N1CCN(Cc2cc3ccccc3o2)CC1 [Compound 23, 1-(benzofuran-2-ylmethyl)-4-(3,5-dichloropyridin-4-yl)piperazine] | 101 | 
6 | CCCCn1nnnc1C(c1cccc(O)c1)N1CCN(c2c(Cl)cccc2Cl)CC1 (stereo not shown) [Compound 25, 3-((1-butyl-1H-tetrazol-5-yl)(4-(2,6-dichlorophenyl)piperazin-1-yl)methyl)phenol] | 98 | 1600
7 | CCCCn1nnnc1C(c1cccc(O)c1)N1CCN(c2ccncc2)CC1 (stereo not shown) [Compound 27, 3-((1-butyl-1H-tetrazol-5-yl)(4-(pyridin-4-yl)piperazin-1-yl)methyl)phenol] | 1.04 | 
8 | CCCCn1nnnc1C(c1cc2ccccc2o1)N1CCN(c2c(Cl)cncc2Cl)CC1 (stereo not shown) [Compound 28, 1-(benzofuran-2-yl(1-butyl-1H-tetrazol-5-yl)methyl)-4-(3,5-dichloropyridin-4-yl)piperazine] | 96.8 | 
9 | CC(C)(C)n1nnnc1C(c1ccnc2ccccc12)N1CCN(c2c(Cl)cncc2Cl)CC1 (stereo not shown) [Compound 29, 4-((1-(tert-butyl)-1H-tetrazol-5-yl)(4-(3,5-dichloropyridin-4-yl)piperazin-1-yl)methyl)quinoline] | 108 | 
10 | CCCCn1nnnc1C(c1ccncc1)N1CCN(c2c(Cl)cncc2Cl)CC1 (stereo not shown) [Compound 30, 1-((1-butyl-1H-tetrazol-5-yl)(pyridin-4-yl)methyl)-4-(3,5-dichloropyridin-4-yl)piperazine] | 100 | 
11 | CC(C)(C)n1nnnc1C(c1ccncc1)N1CCN(c2c(Cl)cncc2Cl)CC1 (stereo not shown) [Compound 31, 1-((1-(tert-butyl)-1H-tetrazol-5-yl)(pyridin-4-yl)methyl)-4-(3,5-dichloropyridin-4-yl)piperazine] | 91.4 | 
12 | CCCCn1nnnc1C(c1ccc(OC)cc1)N1CCN(c2c(Cl)cncc2Cl)CC1 (stereo not shown) [Compound 32, 1-((1-butyl-1H-tetrazol-5-yl)(4-methoxyphenyl)methyl)-4-(3,5-dichloropyridin-4-yl)piperazine] | 91.6 | 
13 | COc1ccc(C(c2nnnn2C(C)(C)C)N2CCN(c3c(Cl)cncc3Cl)CC2)cc1 (stereo not shown) [Compound 33, 1-((1-(tert-butyl)-1H-tetrazol-5-yl)(4-methoxyphenyl)methyl)-4-(3,5-dichloropyridin-4-yl)piperazine] | 97.5 | 
14 | CCCCn1nnnc1C(c1ccc(C#N)cc1)N1CCN(c2c(Cl)cncc2Cl)CC1 (stereo not shown) [Compound 34, 4-((1-butyl-1H-tetrazol-5-yl)(4-(3,5-dichloropyridin-4-yl)piperazin-1-yl)methyl)benzonitrile] | 99.8 | 
15 | CC(C)(C)n1nnnc1C(c1ccc(C#N)cc1)N1CCN(c2c(Cl)cncc2Cl)CC1 (stereo not shown) [Compound 35, 4-((1-(tert-butyl)-1H-tetrazol-5-yl)(4-(3,5-dichloropyridin-4-yl)piperazin-1-yl)methyl)benzonitrile] | 106 | 
16 | CCCCn1nnnc1C(c1ccc(F)cc1)N1CCN(c2c(Cl)cncc2Cl)CC1 (stereo not shown) [Compound 36, 1-((1-butyl-1H-tetrazol-5-yl)(4-fluorophenyl)methyl)-4-(3,5-dichloropyridin-4-yl)piperazine] | 102 | 
17 | CC(C)(C)n1nnnc1C(c1ccc(F)cc1)N1CCN(c2c(Cl)cncc2Cl)CC1 (stereo not shown) [Compound 37, 1-((1-(tert-butyl)-1H-tetrazol-5-yl)(4-fluorophenyl)methyl)-4-(3,5-dichloropyridin-4-yl)piperazine] | 111 | 
18 | CCCCn1nnnc1C(c1cccc2ccccc12)N1CCN(c2c(Cl)cncc2Cl)CC1 (stereo not shown) [Compound 38, 1-((1-butyl-1H-tetrazol-5-yl)(naphthalen-1-yl)methyl)-4-(3,5-dichloropyridin-4-yl)piperazine] | 97.6 | 

Row | Structure (SMILES) | inhibition at 10 µM [%] | IC50 [nM]
19 | CC(C)(C)n1nnnc1C(c1cccc2ccccc12)N1CCN(c2c(Cl)cncc2Cl)CC1 (stereo not shown) [Compound 39, 1-((1-(tert-butyl)-1H-tetrazol-5-yl)(naphthalen-1-yl)methyl)-4-(3,5-dichloropyridin-4-yl)piperazine] | 107 | 
20 | CCCCn1nnnc1C(c1ccc2ccccc2c1)N1CCN(c2c(Cl)cncc2Cl)CC1 (stereo not shown) [Compound 40, 1-((1-butyl-1H-tetrazol-5-yl)(naphthalen-2-yl)methyl)-4-(3,5-dichloropyridin-4-yl)piperazine] | 87.6 | 
21 | CC(C)(C)n1nnnc1C(c1ccc2ccccc2c1)N1CCN(c2c(Cl)cncc2Cl)CC1 (stereo not shown) [Compound 41, 1-((1-(tert-butyl)-1H-tetrazol-5-yl)(naphthalen-2-yl)methyl)-4-(3,5-dichloropyridin-4-yl)piperazine] | 108 | 
22 | CC(C)(C)n1nnnc1C(/C=C/c1ccccc1)N1CCN(c2c(Cl)cncc2Cl)CC1 (stereo not shown) [Compound 43, (E)-1-(1-(1-(tert-butyl)-1H-tetrazol-5-yl)-3-phenylallyl)-4-(3,5-dichloropyridin-4-yl)piperazine] | 111 | 
23 | CCCCn1nnnc1C(c1cc2ccccc2[nH]1)N1CCN(c2c(Cl)cncc2Cl)CC1 (stereo not shown) [Compound 46, 2-((1-butyl-1H-tetrazol-5-yl)(4-(3,5-dichloropyridin-4-yl)piperazin-1-yl)methyl)-1H-indole] | 102 | 381
24 | CC(C)(C)n1nnnc1C(c1cc2ccccc2[nH]1)N1CCN(c2c(Cl)cncc2Cl)CC1 (stereo not shown) [Compound 47, 2-((1-(tert-butyl)-1H-tetrazol-5-yl)(4-(3,5-dichloropyridin-4-yl)piperazin-1-yl)methyl)-1H-indole] | 114 | 182
25 | CCCCn1nnnc1C(c1ccc(C)o1)N1CCN(c2c(Cl)cncc2Cl)CC1 (stereo not shown) [Compound 48, 1-((1-butyl-1H-tetrazol-5-yl)(5-methylfuran-2-yl)methyl)-4-(3,5-dichloropyridin-4-yl)piperazine] | 100 | 
26 | Cc1ccc(C(c2nnnn2C(C)(C)C)N2CCN(c3c(Cl)cncc3Cl)CC2)o1 (stereo not shown) [Compound 49, 1-((1-(tert-butyl)-1H-tetrazol-5-yl)(5-methylfuran-2-yl)methyl)-4-(3,5-dichloropyridin-4-yl)piperazine] | 100 | 
27 | CC(C)n1nnnc1C(c1ccco1)N1CCN(c2c(Cl)cncc2Cl)CC1 (stereo not shown) [Compound 50, 1-(3,5-dichloropyridin-4-yl)-4-(furan-2-yl(1-isopropyl-1H-tetrazol-5-yl)methyl)piperazine] | 96.7 | 
28 | CC(C)n1nnnc1C(c1ccnc2ccccc12)N1CCN(c2c(Cl)cncc2Cl)CC1 (stereo not shown) [Compound 51, 4-((4-(3,5-dichloropyridin-4-yl)piperazin-1-yl)(1-isopropyl-1H-tetrazol-5-yl)methyl)quinoline] | 101 | 
29 | CCCCC(c1nnnn1C(C)C)N1CCN(c2c(Cl)cncc2Cl)CC1 (stereo not shown) [Compound 52, 1-(3,5-dichloropyridin-4-yl)-4-(1-(1-isopropyl-1H-tetrazol-5-yl)pentyl)piperazine] | 95.8 | 
30 | COC(=O)Cn1nnnc1C(c1cccc(O)c1)N1CCN(c2c(Cl)cncc2Cl)CC1 (stereo not shown) [Compound 53, Methyl 2-(5-((4-(3,5-dichloropyridin-4-yl)piperazin-1-yl)(3-hydroxyphenyl)methyl)-1H-tetrazol-1-yl)acetate] | 72.4 | 
31 | CCCCn1nnnc1C(c1cccc(O)c1)N1CCN(c2ccc(F)cc2)CC1 (stereo not shown) [Compound 54, 3-((1-butyl-1H-tetrazol-5-yl)(4-(4-fluorophenyl)piperazin-1-yl)methyl)phenol] | 51.3 | 
32 | CCCCn1nnnc1C(c1cccc(O)c1)N1CCN(c2c(C)cccc2C)CC1 (stereo not shown) [Compound 55, 3-((1-butyl-1H-tetrazol-5-yl)(4-(2,6-dimethylphenyl)piperazin-1-yl)methyl)phenol] | 109 | 
33 | CCCCn1nnnc1C(c1cccc(O)c1)N1CCN(C(=O)OC(C)(C)C)CC1 (stereo not shown) [Compound 56, tert-butyl 4-((1-butyl-1H-tetrazol-5-yl)(3-hydroxyphenyl)methyl)piperazine-1-carboxylate] | 24.6 | 
34 | CCCCn1nnnc1C(c1cccc(O)c1)N1CCN(C(=O)OCc2ccccc2)CC1 (stereo not shown) [Compound 57, benzyl 4-((1-butyl-1H-tetrazol-5-yl)(3-hydroxyphenyl)methyl)piperazine-1-carboxylate] | 24.9 | 
35 | CCCCn1nnnc1C(c1cccc(O)c1)N1CCN(c2cccc(C(F)(F)F)n2)CC1 (stereo not shown) [Compound 58, 3-((1-butyl-1H-tetrazol-5-yl)(4-(6-(trifluoromethyl)pyridin-2-yl)piperazin-1-yl)methyl)phenol] | 58.4 | 
36 | CCCCn1nnnc1C(c1cccc(O)c1)N1CCN(c2ccccc2OC)CC1 (stereo not shown) [Compound 59, 3-((1-butyl-1H-tetrazol-5-yl)(4-(2-methoxyphenyl)piperazin-1-yl)methyl)phenol] | 94.5 | 
